Data set [1] is described as follows: THESA assay for determination of the thermodynamic solubility. It counts as physicochemical. The settings on record: 22.5 °C, aqueous buffer, thermodynamic from solid, second figure of the cell. The method, then: In addition, the compounds of the present invention have been tested in a THESA assay for determination of the thermodynamic solubility.
Approximately 2 mg of each compound was added in excess to a 50 mM phosphate buffer, at room temperature (22.5±1° C.). Each sample was placed in a microanalysis tube, which was sonicated for 1 h and agitated for 2 h. All suspensions were left overnight. At the next day all pHs were measured with a pH-meter and the samples filtered with a micronic filterplate (MSGVN2250) to separate the solid material from the solution. Then, all solutions were analyzed by HPLC. The calibration line was established by different concentrations of the compound in DMSO. From this regression equation the solubility of the compound was determined.

The target of a further data set is T1, γ-secretase (Homo sapiens, UniProt P49768).
T1 construct: HEK293 membrane fraction as a source of γ-secretase
The data set is described as follows: in vitro assay of γ-secretase activity (HEK293 membrane fraction, recombinant APP substrate, Abeta ELISA). It counts as biochemical. The settings on record: for Comments: potency (and THESA solubility) of the present example compared with the corresponding example from WO 2005/023772. From the text: Description of γ-secretase Assay
The activity of test compounds can be evaluated in assays which measure the proteolytic cleavage of suitable substrates by γ-secretase activity. These can be cellular assays where e.g., a substrate of the γ-secretase is fused in its cytoplasmic domain to a transcription factor. Cells are transfected with this fusion gene and a reporter gene, e.g., firefly luciferase, which expression is enhanced by the transcription factor. Cleavage of the fused substrate by γ-secretase will lead to expression of the reporter gene which can be monitored in appropriate assays. The γ-secretase activity can also be determined in cell-free in vitro assays where e.g., a cell lysate containing the γ-secretase complex is incubated with a suitable APP-derived substrate which is cleaved to the Abeta peptides. The amount of produced peptides can be determined with specific ELISA assays. Cell lines of neuronal origin secrete Abeta peptides which can be measured with the specific ELISA assay. Treatment with compounds which inhibit γ-secretase leads to a reduction of secreted Abeta thus providing a measure of inhibition.
The in vitro assay of γ-secretase activity uses a HEK293 membrane fraction as a source of γ-secretase and a recombinant APP substrate. Latter consist of the C-terminal 100 amino acids of human APP fused to a 6×Histidin tail for purification which is expressed in E.coli in a regulatable expression vector, e.g. pEt15. This recombinant protein corresponds to the truncated APP fragment which results after […] of the extracellular domain and which constitutes the γ-secretase substrate. The assay principle is described in Li Y M et al, PNAS 97(11), 6138-6143 (2000). Hek293 cells are mechanically disrupted and the microsomal fraction is isolated by differential centrifugation. The membranes are solubilized in detergent (0.25% CHAPSO) and incubated with the APP substrate. The Abeta peptides which are produced by γ-secretase cleavage of the substrate are detected by specific ELISA assays as described (Brockhaus M et al, Neuroreport 9(7), 1481-1486 (1998).
In general terms: An ELISA detects its analyte on a solid surface through an enzyme-linked reagent.

Where [2] appears, read: comparison compounds from WO 2005/023772, 50 mM phosphate buffer, room temperature, read-out: THESA (IC50/THESA, Corresponding Example from WO 2005/023772).
The mark [3] stands for this setting: 50 mM phosphate buffer, room temperature (22.5±1° C.), read-out: THESA (IC50/THESA, Example No. present appl.).

≈ marks a conversion by molar mass, not a printed value. Like-named read-outs stand apart in the source and are kept apart here.

Take `CC(C)(C(=O)NCCC(F)(F)F)C(=O)N[C@H]1C(=O)Nc2ccccc2-c2ccccc21` [reference compound]: the solubility thermodynamic in data set [1] (setting [2]) is below 1 µg/mL. Still for that read-out and setting: next, `C[C@@](F)(C(=O)NCC(F)(F)C(F)(F)F)C(=O)N[C@H]1C(=O)Nc2ccccc2-c2ccccc21` [reference compound]: below 1 µg/mL. For `C[C@](O)(C(=O)NCCC(F)(F)F)C(=O)N[C@@H]1C(=O)Nc2ccccc2-c2ccccc21` [Example 2c, (S)-2-Hydroxy-2-methyl-N-((S)-6-oxo-6,7-dihydro-5H-dibenzo[b,d]azepin-7-yl)-N′-(3,3,3-trifluoro-propyl)-malonamide], in data set [1] (setting [3]), the solubility thermodynamic turned out to be 127 µg/mL (≈ 292 µM). Also, on γ-secretase, the Comments result is “Higher potency, higher solubility”.

As for `C[C@](O)(C(=O)NCC(F)(F)C(F)(F)F)C(=O)N[C@@H]1C(=O)Nc2ccccc2-c2ccccc21` [Example 1c, (S)-2-Hydroxy-2-methyl-N-((S)-6-oxo-6,7-dihydro-5H-dibenzo[b,d]azepin-7-yl)-N′-(2,2,3,3,3-pentafluoro-propyl)-malonamide], the solubility thermodynamic in data set [1] (setting [3]) stood at 14 µg/mL (≈ 29.7 µM). `CCCC(O)(C(N)=O)C(=O)N(CCC(F)(F)F)[C@@H]1C(=O)Nc2ccccc2-c2ccccc21` (single isomer, unassigned) [Example 6g, (R or S)-2-Hydroxy-N-((S)-6-oxo-6,7-dihydro-5H-dibenzo[b,d]azepin-7-yl)-2-propyl-N-(3,3,3-trifluoro-propyl)-malonamide]: the Comments result at γ-secretase was “Higher potency”. `C[C@](O)(C(=O)NCC(F)(F)F)C(=O)N[C@@H]1C(=O)Nc2ccccc2-c2ccccc21` [Example 3b, (S)-2-Hydroxy-2-methyl-N-((S)-6-oxo-6,7-dihydro-5H-dibenzo[b,d]azepin-7-yl)-N′-(2,2,2-trifluoro-ethyl)-malonamide]: the solubility thermodynamic in data set [1] (setting [3]) stood at 26 µg/mL (≈ 61.7 µM). Also, on γ-secretase, the Comments entry is on record as “Higher potency, higher solubility”. Turning to `C[C@@](O)(C(=O)NCC(F)(F)C(F)(F)F)C(=O)N[C@@H]1C(=O)Nc2ccccc2-c2ccccc21` [Example 1b, (R)-2-Hydroxy-2-methyl-N-((S)-6-oxo-6,7-dihydro-5H-dibenzo[b,d]azepin-7-yl)-N′-(2,2,3,3,3-pentafluoro-propyl)-malonamide], the solubility thermodynamic in data set [1] (setting [3]) turned out to be 19 µg/mL (≈ 40.3 µM). Consider `CCCC(C)(C(=O)NCCC(F)(F)F)C(=O)N[C@H]1C(=O)Nc2ccccc2-c2ccccc21` (stereo partly shown) [reference compound], for which the “IC50 (IC50/THESA, Corresponding Example from WO 2005/023772)” value on γ-secretase (first figure of the cell, comparison compounds from WO 2005/023772) was “nearly inactive/—”. For the molecule `CC(C)(C(=O)NCC(F)(F)F)C(=O)N[C@H]1C(=O)Nc2ccccc2-c2ccccc21` [reference compound], the solubility thermodynamic in data set [1] (setting [2]) was 16 µg/mL (≈ 38.1 µM). Regarding `CCCC(O)(C(=O)NCCC(F)(F)F)C(=O)N[C@@H]1C(=O)Nc2ccccc2-c2ccccc21` (mixture of isomers) [Example 6a], the Comments result at γ-secretase was “Higher potency”.

In the case of `C[C@](F)(C(=O)NCC(F)(F)C(F)(F)F)C(=O)N[C@H]1C(=O)Nc2ccccc2-c2ccccc21` [reference compound], the solubility thermodynamic in data set [1] (setting [2]) is below 1 µg/mL. Turning to `CC(O)(C(=O)NCC(F)(F)C(F)(F)F)C(=O)N[C@@H]1C(=O)N(CC(F)(F)F)c2ccccc2-c2ccccc21` (mixture of isomers) [Example 12a], the Comments entry at γ-secretase is on record as “Higher potency”.

Consider `C[C@](O)(C(=O)NCC(F)(F)F)C(=O)N[C@@H]1C(=O)N(CC(F)(F)F)c2ccccc2-c2ccccc21` [Example 13b, (S)-2-Hydroxy-2-methyl-N-[(S)-6-oxo-5-(2,2,2-trifluoro-ethyl)-6,7-dihydro-5H-dibenzo[b,d]azepin-7-yl]-N′-(2,2,2-trifluoro-ethyl)-malonamide], for which, in data set [1] (setting [3]), the solubility thermodynamic turned out to be 14 µg/mL (≈ 27.8 µM). Also, at γ-secretase, the Comments result is recorded as “Higher potency”.

The values above are taken from patent US7544679B2 (Hoffman-La Roche Inc., priority 2007, dated 2009).
